Legend:
[1] = system: E. coli; conditions: low inoculum levels (50-1000 bacterial cells/ml)
[2] = system: Neisseria; conditions: no catechol inducer
[3] = system: Neisseria meningitidis; assay: SDS-PAGE protein analysis of bacteria grown with and without norepinephrine bitartrate; format: cell-based
Excerpt: Samples of “test” bacteria grown as described above in MEM containing NEAA, iron chelator (ABS) and iron (Vitox) both in the presence and absence of norepinephrine bitartrate were taken. The samples were centrifuged to pellet bacteria. The bacterial pellets obtained were resuspended in 50 microliters of TE buffer (Sambrook et al: 1989, Molecular cloning: A Laboratory Manual, Cold Spring Harbour Laboratory Press, N.Y.) and 200 microliters of SDS-PAGE solubilisation buffer added (Sambrook et al: as above). The mixture was then heated at 70 deg C to solubilize proteins. Samples and appropriate molecular weight markers were then run on 10% and 12% SDS-polyacrylamide gels. The gels were then stained with Coomassie blue stain, according to a standard method, and protein bands observed.
Culture was carried out in MEM medium containing NEAA, iron (Vitox) and an iron chelator (ABS), either with norepinephrine bitartrate added to the culture (lane 1), or without norepinephrine bitartrate (lane 2). Molecular weight markers (kD) are also shown (lane M).

[4] = system: Neisseria meningitidis strain B16B6; assay: Growth of Neisseria meningitidis culture (optical density at 600 nm) with and without norepinephrine bitartrate; format: cell-based; conditions: 100 micromolar added at 20 hours post-inoculation; MEM with NEAA, Vitox (iron) and ABS (iron chelator); OD 600 nm until 30 hours
Method: A culture of Neisseria meningitidis strain B16B6 (obtainable from the National Collection of Type Cultures, PHLS, Colindale, London, UK) was grown overnight at 37 deg C. on a GC agar plate (Oxoid) containing 2% Vitox (Oxoid). Vitox is a defined growth supplement suitable for enrichment of culture media and contains, amongst other ingredients, a source of iron.
At the end of incubation, about 20 bacterial colonies were harvested from the GC agar plate and suspended in 100 microliters of sterile phosphate-buffered saline (PBS; Gibco). The resulting bacterial suspension was then grown at 37 deg C for 4 hours on a GC agar plate containing 2% Vitox. At the end of incubation, the agar plate was flooded with 2 ml of sterile PBS and the bacterial suspension transferred into a sterile container. Optical density of the suspension was then determined at 600 nm. An optical density at 600 nm of 0.1 is equivalent to about 2×10^8 cfu/ml of Neisseria meningitidis. […]
The test medium was incubated at 37 deg C. with shaking at 180 rpm. The optical density of the culture was measured at 600 nm at 2, 4 and 20 hours post-inoculation of the media.
At 20 hours post-inoculation, the test sample was divided into halves. […] Both half-samples were then further incubated at 37 deg C., and optical density at 600 nm measured every 2 hours until 30 hours post-inoculation. […]

Row | SMILES | growth of E. coli under low iron conditions and low inoculum levels [1] | growth of Neisseria under low-iron conditions [2] | newly expressed or overexpressed further proteins (SDS-PAGE) ([3]; compared with bacteria cultured without norepinephrine) | proteins expressed only when grown in the presence of the inducer (SDS-PAGE, Coomassie) ([3]; compared with bacteria grown in the absence of norepinephrine bitartrate, MEM with NEAA, Vitox, ABS) | over-expression of protein in comparison to bacteria grown without the inducer (SDS-PAGE) ([3]; compared with bacteria grown without norepinephrine bitartrate) | growth of a culture of Neisseria meningitidis [4]
1 | O=C(O)C(NCCNC(C(=O)O)c1ccccc1O)c1ccccc1O (stereo not drawn) [EDDA, ethylene diamine di-ortho-hydroxyphenyl-acetic acid] | nor to a lesser extent do they allow good growth | do not reliably allow good growth | – | – | – | –
2 | NC[C@H](O)c1ccc(O)c(O)c1 [norepinephrine bitartrate] | – | – | newly expressed or overexpressed further proteins with molecular weights of about 250 kDa, about 80 kDa, and about 28 kDa | expressed proteins, including proteins with molecular weights of about 100 KDa and about 55 KDa | over-expression of an approximately 20 KDa protein | accelerated growth

— patent US20010031268A1, “Antigen preparations” (priority 1999, published 2001)
